{
  "source": "PubChem BioAssay AID1259411",
  "about": "(Chemical Carcinogenesis Research Information System (CCRIS), 2018)",
  "tested_on": "rodent carcinogenicity bioassays, tumor incidence",
  "experiment": "CCRIS carcinogenicity studies",
  "outline": "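Archive of carcinogenicity, mutagenicity, tumor promotion and tumor inhibition results drawn from journals, NCI reports and other sources, expert-reviewed; covers 1985-2011 and is no longer updated.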",
  "key": {"[1]": {"conditions": "Species: MOUSE, Route: DERMAL, Tumor Site: Type of Lesion: INTEGUMENTARY SYSTEM (SKIN)"}, "[2]": {"conditions": "Species: MOUSE, Route: SUBCUTANEOUS, Tumor Site: Type of Lesion: INJECTION SITE"}, "[3]": {"conditions": "Species: RAT, Route: SUBCUTANEOUS, Tumor Site: Type of Lesion: INJECTION SITE"}},
  "note": "The source made the active and inactive calls. No rule for the calls is given here.",
  "data": [
    {"compound": "O=S(=O)(O)c1ccc(N=Nc2cc(S(=O)(=O)O)c3ccccc3c2O)c2ccccc12", "values": [
      {"measurement": "carcinogen call", "setting": "Species: MOUSE, Strain/Sex: B6C3F1/FEMALE, Route: ORAL, Dose: 0, 3000, 6000 PPM IN DIET, Dose: 0, 3000, 6000 PPM IN DIET", "value": "inactive; negative"},
      {"measurement": "carcinogen call", "setting": "Species: MOUSE, Strain/Sex: B6C3F1/MALE, Route: ORAL, Dose: 0, 3000, 6000 PPM IN DIET, Dose: 0, 3000, 6000 PPM IN DIET", "value": "inactive; negative"},
      {"measurement": "carcinogen call", "setting": "Species: RAT, Strain/Sex: F344/FEMALE, Route: ORAL, Dose: 0, 12500, 25000 PPM IN DIET, Dose: 0, 12500, 25000 PPM IN DIET", "value": "inactive; negative"},
      {"measurement": "carcinogen call", "setting": "Species: RAT, Strain/Sex: F344/MALE, Route: ORAL, Dose: 0, 6000, 12500 PPM IN DIET, Dose: 0, 6000, 12500 PPM IN DIET", "value": "inactive; negative"},
      {"measurement": "carcinogen call", "setting": "Species: RAT, Strain/Sex: WISTAR/FEMALE, Route: ORAL, Dose: 0, 100, 400, 1200 MG/KG/D IN BASAL DIET TO PUPS OF PARENTS EXPOSED TO THE SAME DOSE LEVELS FOR 9 WK PRIOR TO MATING AND, Dose: 0, 100, 400, 1200 MG/KG/D IN BASAL DIET TO PUPS OF PARENTS EXPOSED TO THE SAME DOSE LEVELS FOR 9 WK PRIOR TO MATING AND", "value": "inactive; negative"},
      {"measurement": "carcinogen call", "setting": "Species: RAT, Strain/Sex: WISTAR/MALE, Route: ORAL, Dose: 0, 100, 400, 1200 MG/KG/D IN BASAL DIET TO PUPS OF PARENTS EXPOSED TO THE SAME DOSE LEVELS FOR 9 WK PRIOR TO MATING AND, Dose: 0, 100, 400, 1200 MG/KG/D IN BASAL DIET TO PUPS OF PARENTS EXPOSED TO THE SAME DOSE LEVELS FOR 9 WK PRIOR TO MATING AND", "value": "inactive; negative"}
    ]},
    {"compound": "O/N=c1\\ccn(O)c2ccccc12", "values": [
      {"measurement": "carcinogen call", "setting": "Species: MOUSE, Strain/Sex: DDD/FEMALE, Route: SUBCUTANEOUS, Dose: 53 NMOL IN 0.1 ML OLIVE OIL WITHIN 24 HR AFTER BIRTH (STUDY DURATION: 400 D), Tumor Site: Type of Lesion: LUNG: ADENOMA, INJECTION SITE: SARCOMA, HEMATOPOIETIC SYSTEM: LEUKEMIA OR LYMPHOSARCOMA, Tumor Site: Type of Lesion: LUNG: ADENOMA, INJECTION SITE: SARCOMA, HEMATOPOIETIC SYSTEM: LEUKEMIA OR LYMPHOSARCOMA", "value": "active; positive"},
      {"measurement": "carcinogen call", "setting": "Species: RAT, Strain/Sex: BUFFALO/FEMALE, Route: GAVAGE, Dose: 1 MG/0.1 ML OR 2 MG/0.2 ML IN 60% ETHANOL SOLUTION 1/3 WK (TOTAL DOSE: 30 MG) (STUDY DURATION: 610 D), Tumor Site: Type of Lesion: GLANDULAR STOMACH: MUCOSAL CARCINOMA, MAMMARY GLAND: TUMOR, THYMUS GLAND: THYMOMA, Tumor Site: Type of Lesion: GLANDULAR STOMACH: MUCOSAL CARCINOMA, MAMMARY GLAND: TUMOR, THYMUS GLAND: THYMOMA", "value": "active; positive"}
    ]},
    {"compound": "c1ccc2c(c1)ccc1cc3c4c(ccc3cc12)CCCC4", "values": [
      {"measurement": "carcinogen call", "setting": "Species: MOUSE, Strain/Sex: SWISS/FEMALE, Route: DERMAL, Dose: 0, 32 UG AS 0.2% SOLUTION IN ACETONE APPLIED TO INTERSCAPULAR REGION 2/WK FOR 50 WK (STUDY DURATION: 60 WK), Tumor Site: Type of Lesion: SKIN: CARCINOMA", "value": "active; positive"}
    ]},
    {"compound": "O=C1CCO1", "values": [
      {"measurement": "carcinogen call", "setting": "[1]", "value": "active; positive"},
      {"measurement": "carcinogen call", "setting": "Species: MOUSE, Route: INTRAPERITONEAL, Tumor Site: Type of Lesion: LIVER, LYMPHATIC SYSTEM: LYMPHOMA", "value": "active; positive"},
      {"measurement": "carcinogen call", "setting": "[2]", "value": "active; positive"},
      {"measurement": "carcinogen call", "setting": "Species: MOUSE, Strain/Sex: CF1/FEMALE, Route: DERMAL, Dose: 0, 2% IN ACETONE 2D/WK FOR 2 YR (STUDY DURATION: 2 YR), Tumor Site: Type of Lesion: SKIN: SQUAMOUS CELL CARCINOMA, SKIN: CARCINOSARCOMA", "value": "active; positive"},
      {"measurement": "carcinogen call", "setting": "Species: MOUSE, Strain/Sex: CF1/MALE, Route: DERMAL, Dose: 0, 2% IN ACETONE 2D/WK FOR 104 WK (STUDY DURATION: 2 YR), Tumor Site: Type of Lesion: SKIN: SQUAMOUS CELL CARCINOMA, SKIN: DERMAL FIBROSARCOMA, SKIN: CARCINOSARCOMA, Tumor Site: Type of Lesion: SKIN: SQUAMOUS CELL CARCINOMA, SKIN: DERMAL FIBROSARCOMA, SKIN: CARCINOSARCOMA", "value": "active; positive"},
      {"measurement": "carcinogen call", "setting": "[3]", "value": "active; positive"},
      {"measurement": "carcinogen call", "setting": "Species: RAT, Strain/Sex: SPRAGUE-DAWLEY/MALE, Route: INHALATION, Dose: 0, 5, 10, 20 PPM 6 HR/D 5 D/WK FOR 30 D EXCEPT 20 PPM GROUP WHICH WAS EXPOSED FOR 5 D (STUDY DURATION: LIFETIME), Dose: 0, 5, 10, 20 PPM 6 HR/D 5 D/WK FOR 30 D EXCEPT 20 PPM GROUP WHICH WAS EXPOSED FOR 5 D (STUDY DURATION: LIFETIME), Tumor Site: Type of Lesion: NASAL CAVITY: TUMORS", "value": "active; positive"}
    ]},
    {"compound": "C1OC1C1CO1", "note": "(stereo not given)", "values": [
      {"measurement": "carcinogen call", "setting": "[1]", "value": "active; positive"},
      {"measurement": "carcinogen call", "setting": "Species: MOUSE, Route: INTRAPERITONEAL, Tumor Site: Type of Lesion: LUNG", "value": "active; positive"},
      {"measurement": "carcinogen call", "setting": "[2]", "value": "active; positive"},
      {"measurement": "carcinogen call", "setting": "Species: MOUSE, Strain/Sex: B6C3F1/FEMALE, Route: INHALATION, Dose: 0, 2.5, 5.0 PPM 6 HR/D 5 D/WK FOR 6 WK (STUDY DURATION: 18 MONTHS), Dose: 0, 2.5, 5.0 PPM 6 HR/D 5 D/WK FOR 6 WK (STUDY DURATION: 18 MONTHS), Tumor Site: Type of Lesion: HARDERIAN GLAND: TUMOR", "value": "active; positive"},
      {"measurement": "carcinogen call", "setting": "[3]", "value": "active; positive"},
      {"measurement": "carcinogen call", "setting": "Species: RAT, Strain/Sex: SPRAGUE-DAWLEY/FEMALE, Route: INHALATION, Dose: 0, 2.5, 5.0 PPM 6 HR/D 5 D/WK FOR 6 WK (STUDY DURATION: 18 MONTHS), Dose: 0, 2.5, 5.0 PPM 6 HR/D 5 D/WK FOR 6 WK (STUDY DURATION: 18 MONTHS), Tumor Site: Type of Lesion: NASAL MUCOSA: TUMOR", "value": "active; positive"}
    ]},
    {"compound": "S=[Se]", "values": [
      {"measurement": "carcinogen call", "setting": "Species: MOUSE, Strain/Sex: B6C3F1/FEMALE, Route: GAVAGE, Dose: 0, 20, 100 MG/KG IN 0.5% AQ CMC, Dose: 0, 20, 100 MG/KG IN 0.5% AQ CMC, Tumor Site: Type of Lesion: LUNG: ALVEOLAR/BRONCHIOLAR ADENOMA OR CARCINOMA, LIVER: HEPATOCELLULAR CARCINOMA", "value": "active; positive"},
      {"measurement": "carcinogen call", "setting": "Species: MOUSE, Strain/Sex: B6C3F1/MALE, Route: GAVAGE, Dose: 0, 20, 100 MG/KG IN 0.5% AQ CMC, Dose: 0, 20, 100 MG/KG IN 0.5% AQ CMC", "value": "inactive; negative"},
      {"measurement": "carcinogen call", "setting": "Species: MOUSE, Strain/Sex: ICR/FEMALE, Route: DERMAL, Dose: 0, 0.5, 1.0 MG/KG IN SALINE SOLN CONT 0.5% CMC 3/WK FOR 86 WK, Dose: 0, 0.5, 1.0 MG/KG IN SALINE SOLN CONT 0.5% CMC 3/WK FOR 86 WK", "value": "inactive; negative"},
      {"measurement": "carcinogen call", "setting": "Species: MOUSE, Strain/Sex: ICR/MALE, Route: DERMAL, Dose: 0, 0.5, 1.0 MG/KG IN SALINE SOLN CONT 0.5% CMC 3/WK FOR 86 WK, Dose: 0, 0.5, 1.0 MG/KG IN SALINE SOLN CONT 0.5% CMC 3/WK FOR 86 WK", "value": "inactive; negative"},
      {"measurement": "carcinogen call", "setting": "Species: RAT, Strain/Sex: F344/FEMALE, Route: GAVAGE, Dose: 0, 3, 15 MG/KG IN 0.5% AQ CMC, Dose: 0, 3, 15 MG/KG IN 0.5% AQ CMC, Tumor Site: Type of Lesion: LIVER: HEPATOCELLULAR CARCINOMA OR NEOPLASTIC NODULE", "value": "active; positive"},
      {"measurement": "carcinogen call", "setting": "Species: RAT, Strain/Sex: F344/MALE, Route: GAVAGE, Dose: 0, 3, 15 MG/KG IN 0.5% AQ CMC, Dose: 0, 3, 15 MG/KG IN 0.5% AQ CMC, Tumor Site: Type of Lesion: LIVER: HEPATOCELLULAR CARCINOMA OR NEOPLASTIC NODULE", "value": "active; positive"}
    ]},
    {"compound": "Nc1ccc2ccccc2c1", "values": [
      {"measurement": "carcinogen call", "setting": "Species: DOG, Route: ORAL, Tumor Site: Type of Lesion: URINARY BLADDER", "value": "active; positive"},
      {"measurement": "carcinogen call", "setting": "Species: DOG, Strain/Sex: BEAGLE/FEMALE, Route: ORAL, Dose: 21.3 MG/KG 5/WK, Tumor Site: Type of Lesion: URINARY BLADDER: TRANSITIONAL CELL CARCINOMA", "value": "active; positive"},
      {"measurement": "carcinogen call", "setting": "Species: DOG, Strain/Sex: BEAGLE/MALE, Route: ORAL, Dose: 18.4 MG/KG 5/WK, Tumor Site: Type of Lesion: URINARY BLADDER: TRANSITIONAL CELL CARCINOMA", "value": "active; positive"},
      {"measurement": "carcinogen call", "setting": "Species: HAMSTER, Route: ORAL, Tumor Site: Type of Lesion: URINARY BLADDER", "value": "active; positive"},
      {"measurement": "carcinogen call", "setting": "Species: HUMAN, Route: ORAL, INHALATION, DERMAL, Tumor Site: Type of Lesion: URINARY BLADDER", "value": "active; positive"},
      {"measurement": "carcinogen call", "setting": "Species: MONKEY, Route: ORAL, Tumor Site: Type of Lesion: URINARY BLADDER", "value": "active; positive"},
      {"measurement": "carcinogen call", "setting": "Species: MOUSE, Route: ORAL, Tumor Site: Type of Lesion: LIVER", "value": "active; positive"}
    ]}
  ]
}
